Assay results from PMC6364417, “Kinase inhibitor library screening identifies synergistic drug combinations effective in sensitive and resistant melanoma cells” (Journal of Experimental & Clinical Cancer Research : CR, 2019).

Columns and labels:
Assay in all cases: Kinase inhibitor library screening, PrestoBlue cell viability, 1 or 10 μM, 72 h
IGR37 cells (parental) = conditions: IGR37 Parental, in %; for Cell viability in kinase inhibitor library screening, IGR37 Parental, 1μΜ / Cell viability in kinase inhibitor library screening, IGR37 Parental, 10μΜ: 72 h
Protocol: (§1) After 72 h of treatment, cell viability was assessed using the PrestoBlue Cell Viability Reagent (ThermoFisher Scientific). Measurements were performed with the CLARIOstar Monochromator microplate reader (BMG Labtech).
(§2) Kinase inhibitor library screening. […] Each cell line was treated in its sensitive form (parental), and also as 2 resistant derivatives, which were made resistant to either Vemurafenib (XP) or Dabrafenib (GP). Drugs were added at 2 different concentrations, 1 and 10 μM, for 72 h and cell viability was assessed using the PrestoBlue Cell Viability assay. Results are depicted as % viability compared to untreated cells. Each cell line was analyzed at least in duplicate. […] (XLSX 95 kb)

[1] = tested on: 501Mel-GP cells (Dabrafenib-resistant); conditions: 501Mel GP, in %; for Cell viability in kinase inhibitor library screening, 501Mel GP, 1μΜ / Cell viability in kinase inhibitor library screening, 501Mel GP, 10μΜ: 72 h
Protocol: as §1, §2

A375 cells (parental) = conditions: A375 Parental; for Cell viability in kinase inhibitor library screening, A375 Parental, 10μΜ / Cell viability in kinase inhibitor library screening, A375 Parental, 1μΜ: 72 h; for cell viability (kinase inhibitor library screening): in %
Protocol: as §1, §2

[2] = tested on: IGR37-GP cells (Dabrafenib-resistant); conditions: IGR37 GP; for Cell viability in kinase inhibitor library screening, IGR37 GP, 10μΜ / Cell viability in kinase inhibitor library screening, IGR37 GP, 1μΜ: 72 h; for Cell viability in kinase inhibitor library screening, IGR37 GP, 1μΜ / cell viability (kinase inhibitor library screening): in %
Protocol: as §1, §2

501Mel cells (parental) = conditions: 501Mel Parental, in %; for Cell viability in kinase inhibitor library screening, 501Mel Parental, 1μΜ / Cell viability in kinase inhibitor library screening, 501Mel Parental, 10μΜ: 72 h
Protocol: as §1, §2

[3] = tested on: A375-GP cells (Dabrafenib-resistant); conditions: A375 GP; for Cell viability in kinase inhibitor library screening, A375 GP, 1μΜ / Cell viability in kinase inhibitor library screening, A375 GP, 10μΜ: 72 h; for cell viability (kinase inhibitor library screening): in %
Protocol: as §1, §2

[4] = tested on: A375-XP cells (Vemurafenib-resistant); conditions: A375 XP; for Cell viability in kinase inhibitor library screening, A375 XP, 1μΜ / Cell viability in kinase inhibitor library screening, A375 XP, 10μΜ: 72 h; for cell viability (kinase inhibitor library screening): in %
Protocol: as §1, §2

[5] = tested on: 501Mel-XP cells (Vemurafenib-resistant); conditions: 501Mel XP, in %; for Cell viability in kinase inhibitor library screening, 501Mel XP, 1μΜ / Cell viability in kinase inhibitor library screening, 501Mel XP, 10μΜ: 72 h
Protocol: as §1, §2

[6] = tested on: IGR37-XP cells (Vemurafenib-resistant); conditions: IGR37 XP; for Cell viability in kinase inhibitor library screening, IGR37 XP, 10μΜ / Cell viability in kinase inhibitor library screening, IGR37 XP, 1μΜ: 72 h; for Cell viability in kinase inhibitor library screening, IGR37 XP, 1μΜ / cell viability (kinase inhibitor library screening): in %
Protocol: as §1, §2

SMILES | Cell viability in kinase inhibitor library screening, IGR37 Parental, 1μΜ (IGR37 cells (parental); 1μΜ) | Cell viability in kinase inhibitor library screening, IGR37 Parental, 10μΜ (IGR37 cells (parental); 10μΜ) | Cell viability in kinase inhibitor library screening, 501Mel GP, 1μΜ ([1]; 1μΜ) | Cell viability in kinase inhibitor library screening, 501Mel GP, 10μΜ ([1]; 10μΜ) | Cell viability in kinase inhibitor library screening, A375 Parental, 10μΜ (A375 cells (parental); 10μΜ) | Cell viability in kinase inhibitor library screening, A375 Parental, 1μΜ (A375 cells (parental); 1μΜ) | Cell viability in kinase inhibitor library screening, IGR37 GP, 10μΜ ([2]; 10μΜ) | Cell viability in kinase inhibitor library screening, IGR37 GP, 1μΜ ([2]; 1μΜ) | Cell viability in kinase inhibitor library screening, 501Mel Parental, 1μΜ (501Mel cells (parental); 1μΜ) | Cell viability in kinase inhibitor library screening, 501Mel Parental, 10μΜ (501Mel cells (parental); 10μΜ) | Cell viability in kinase inhibitor library screening, A375 GP, 1μΜ ([3]; 1μΜ) | Cell viability in kinase inhibitor library screening, A375 GP, 10μΜ ([3]; 10μΜ) | Cell viability in kinase inhibitor library screening, A375 XP, 1μΜ ([4]; 1μΜ) | Cell viability in kinase inhibitor library screening, A375 XP, 10μΜ ([4]; 10μΜ) | Cell viability in kinase inhibitor library screening, 501Mel XP, 1μΜ ([5]; 1μΜ) | Cell viability in kinase inhibitor library screening, 501Mel XP, 10μΜ ([5]; 10μΜ) | Cell viability in kinase inhibitor library screening, IGR37 XP, 10μΜ ([6]; 10μΜ) | Cell viability in kinase inhibitor library screening, IGR37 XP, 1μΜ ([6]; 1μΜ) | further results
COc1ccc(-c2ccc3c(N4CCOCC4)nc(N4C[C@@H](C)O[C@@H](C)C4)nc3n2)cc1CO [Ku-0063794] | 73.4 | 23.7 | 56.6 | 13.4 | 24.0 | 63.8 | 36.1% | 76.2 | 71.5 | 16.9 | 63.9 | 20.8 | 54.3 | 19.7 | 47.2 | 6.9 | 12.3% | 68.5 | 
Cc1ccc(F)c(NC(=O)Nc2ccc(-c3cccc4[nH]nc(N)c34)cc2)c1 [Linifanib (ABT-869)] | 99.9 | 60.3 | 106.7 | 11.3 | 46.3 | 106.9 | 52.4% |  | 98.1 |  | 102.6 | 38.3 | 110.5 | 59.8 |  | 3.8 | 30.7% | 102.6 | 
COc1cc(Nc2c(C#N)cnc3cc(OCCCN4CCN(C)CC4)c(OC)cc23)c(Cl)cc1Cl [Bosutinib (SKI-606)] |  |  |  |  |  |  |  |  |  |  |  |  |  |  |  |  |  |  | cell viability (kinase inhibitor library screening) (IGR37 cells (parental); 1μΜ): 97.3; cell viability (kinase inhibitor library screening) (IGR37 cells (parental); 10μΜ): 1.8; cell viability (kinase inhibitor library screening) ([1]; 1μΜ): 91.9; cell viability (kinase inhibitor library screening) ([1]; 10μΜ): -0.266; cell viability (kinase inhibitor library screening) (A375 cells (parental); 1μΜ): 80.1; cell viability (kinase inhibitor library screening) (A375 cells (parental); 10μΜ): 39.3; cell viability (kinase inhibitor library screening) ([2]; 1μΜ): 95.0; cell viability (kinase inhibitor library screening) ([2]; 10μΜ): 20.7; cell viability (kinase inhibitor library screening) (501Mel cells (parental); 1μΜ): 98.4; cell viability (kinase inhibitor library screening) (501Mel cells (parental); 10μΜ): 0.645; cell viability (kinase inhibitor library screening) ([3]; 1μΜ): 85.6; cell viability (kinase inhibitor library screening) ([3]; 10μΜ): 32.7; cell viability (kinase inhibitor library screening) ([4]; 1μΜ): 83.7; cell viability (kinase inhibitor library screening) ([4]; 10μΜ): 30.5; cell viability (kinase inhibitor library screening) ([5]; 1μΜ): 103.1; cell viability (kinase inhibitor library screening) ([5]; 10μΜ): -0.2; cell viability (kinase inhibitor library screening) ([6]; 1μΜ): 98.8; cell viability (kinase inhibitor library screening) ([6]; 10μΜ): 4.2
CC(C)(C)Cn1c(N)nc2ccc(-c3[nH]c(C(C)(C)C)nc3-c3ccc(F)cc3)nc21 [LY2228820] |  | 98.8 | 108.2 |  | 91.0 | 105.7 | 82.8% | 90.6 | 95.6 | 91.9 | 105.3 | 79.1 | 100.0 | 84.7 | 97.0 | 82.4 | 38.4% | 91.6 | 
